# Article PMC4965148 (PLoS ONE, 2016)
# Values joined by “and” are separate entries in the source; they are usually repeats but may differ in a detail not shown here. Equal entries are not always repeated. Where two headings read alike, the source gives them in different places.
# Key:
# α7 nAChR = biological target: T1, α7 nAChR (Mus musculus, UniProt P49582); experiment: Ex vivo α7 nAChR occupancy ([3H]-A-585539); type: in vivo
# T1 construct: One forebrain hemisphere from each animal was thawed and homogenized in assay buffer; from tissue; host or cells: forebrain homogenate of dosed male C57Bl/6 mice
# Procedure: Occupancy determinations were made either on completion of behavioral testing or in satellite groups of animals dosed in parallel with behavioral testing. At specified time points after dosing, the forebrain (for occupancy), the remaining hindbrain (for brain drug exposure) and plasma were collected, frozen in chilled isopentane and stored at -80°C until assayed. […] Homogenized tissue aliquots were frozen immediately and stored at -80°C. […] The filters were washed with ice-cold assay buffer, punched into a clear plate and 200 μl scintillation fluid added per well. Bound radioactivity was measured using a Wallac Microbeta liquid scintillation counter. Specific binding was calculated by subtracting the value of the non-specific binding from that of the total binding in each sample. The percent occupancy was calculated as [1 –(specific binding in drug treated mice/specific binding in vehicle treated mice)] x 100.
# [1] = Plasma and brain concentrations after dosing; type: in vivo, rat; conditions: for concentration at 150 min / concentration at 30 min: brain, read-out: Brain Mean ± SD; for concentration at 150 min / Kp at 150 min: oral; for concentration at 30 min / Kp at 30 min: sc
# Procedure: At specified time points after dosing, the forebrain (for occupancy), the remaining hindbrain (for brain drug exposure) and plasma were collected, frozen in chilled isopentane and stored at -80°C until assayed.
# In brief, 50 μL of the plasma sample was extracted by protein precipitation with 150 μL acetonitrile containing an internal standard and 5 μL of supernatant injected into the LC-MS/MS system. Analytes were separated by reversed phase chromatography and detection of each analyte was achieved through selected reaction monitoring mode of mass spectrometry.
# T1 sequence (P49582 23-502): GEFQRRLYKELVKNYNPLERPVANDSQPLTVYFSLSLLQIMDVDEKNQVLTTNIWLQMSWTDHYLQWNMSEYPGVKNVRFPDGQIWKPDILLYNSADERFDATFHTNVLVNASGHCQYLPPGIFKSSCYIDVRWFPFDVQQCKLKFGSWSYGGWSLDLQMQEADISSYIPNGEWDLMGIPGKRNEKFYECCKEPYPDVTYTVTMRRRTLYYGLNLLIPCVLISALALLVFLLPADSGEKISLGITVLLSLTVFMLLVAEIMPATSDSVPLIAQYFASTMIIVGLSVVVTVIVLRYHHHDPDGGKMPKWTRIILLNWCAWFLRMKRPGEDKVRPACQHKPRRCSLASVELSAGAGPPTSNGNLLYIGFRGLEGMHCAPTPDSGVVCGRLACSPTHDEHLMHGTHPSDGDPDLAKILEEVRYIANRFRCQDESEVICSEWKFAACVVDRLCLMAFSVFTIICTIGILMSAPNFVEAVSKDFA
structure (smiles),measurement,setting,value
"c1cn(-c2cc(NC3=NC[C@@]4(CN5CCC4CC5)O3)ncn2)cn1 [BMS-933043, (2R)-N-(6-(1H-imidazol-1-yl)-4-pyrimidinyl)-4'H-spiro[4-azabicyclo[2.2.2]octane-2,5'-[1,3]oxazol]-2'-amine]",EC50,α7 nAChR,1900 nM
same,% ex vivo α7 nAChR occupancy,"α7 nAChR; 0.3 mg/kg sc, 30 min, individual mice",11.2% and -5.2% and 7.5% and -6.3%
same,% ex vivo α7 nAChR occupancy,"α7 nAChR; 1 mg/kg sc, 30 min",18.3% and 25.5% and 25.4% and ~ 20%
same,% ex vivo α7 nAChR occupancy,"α7 nAChR; 3 mg/kg sc, 30 min, individual mice",56.2% and 44.9% and 45.1%
same,% ex vivo α7 nAChR occupancy,"α7 nAChR; 10 mg/kg sc, 30 min",76.4% and 74.8% and 75.4% and > 75%
same,% ex vivo α7 nAChR occupancy,"α7 nAChR; 100 mg/kg sc, 30 min, individual mice",93.3% and 94.1% and 92.1%
same,receptor occupancy at 1 mg/kg,"α7 nAChR; mouse, sc, read-out: % ex vivo α7 nAChR occupancy, 1 mg/kg sc, 30 min",23.9%
same,receptor occupancy at 3 mg/kg,"α7 nAChR; mouse, sc, read-out: % ex vivo α7 nAChR occupancy, 3 mg/kg sc, 30 min, individual mice",41.3%
same,receptor occupancy at 10 mg/kg,"α7 nAChR; mouse, sc, read-out: % ex vivo α7 nAChR occupancy, 10 mg/kg sc, 30 min",78.5%
same,receptor occupancy at 100 mg/kg,"α7 nAChR; mouse, sc, read-out: % ex vivo α7 nAChR occupancy, 100 mg/kg sc, 30 min, individual mice",91.3%
same,Brain Mean ± SD,"[1]; Rat MK-801 Set Shift (0.3-3 mg/kg study), 0.30 mg/kg po, 150 min",< LLQ
same,concentration at 150 min,"[1]; rat, 1 mg/kg, Rat MK-801 Set Shift (0.3-3 mg/kg study), 1 mg/kg po, 150 min",13 ± 3 nM
same,concentration at 150 min,"[1]; rat, 3 mg/kg, Rat MK-801 Set Shift (0.3-3 mg/kg study), 3 mg/kg po, 150 min",100 ± 39 nM
same,concentration at 150 min,"[1]; rat, 3 mg/kg, Rat MK-801 Set Shift (3-30 mg/kg study), 3 mg/kg po, 150 min",132 ± 17 nM
same,concentration at 150 min,"[1]; rat, 10 mg/kg, Rat MK-801 Set Shift (3-30 mg/kg study), 10 mg/kg po, 150 min",533 ± 111 nM
same,concentration at 150 min,"[1]; rat, 30 mg/kg, Rat MK-801 Set Shift (3-30 mg/kg study), 30 mg/kg po, 150 min",2220 nM
same,concentration at 30 min,"[1]; rat, 0.03 mg/kg, Rat MMN, 0.03 mg/kg sc",13 nM
same,concentration at 30 min,"[1]; rat, 0.3 mg/kg, Rat MMN, 0.30 mg/kg sc",13 ± 0.65 nM
same,concentration at 30 min,"[1]; rat, 0.3 mg/kg, Rat N40 Gating, 0.30 mg/kg sc",21 ± 6 nM
same,concentration at 30 min,"[1]; rat, 0.56 mg/kg, Rat N40 Gating, 0.56 mg/kg sc",42 ± 10 nM
same,concentration at 30 min,"[1]; rat, 1 mg/kg, Rat MMN, 1 mg/kg sc",74 ± 18 nM
same,concentration at 30 min,"[1]; rat, 1 mg/kg, Rat N40 Gating, 1 mg/kg sc",97 ± 14 nM
same,concentration at 30 min,"[1]; rat, 3 mg/kg, Rat MMN, 3 mg/kg sc",378 ± 161 nM
same,concentration at 30 min,"[1]; rat, 3 mg/kg, Rat N40 Gating, 3 mg/kg sc",372 ± 33 nM
same,Kp at 150 min,"[1]; rat, brain/plasma, 1 mg/kg, Rat MK-801 Set Shift (0.3-3 mg/kg study), 1 mg/kg po, 150 min",0.25
same,Kp at 150 min,"[1]; rat, brain/plasma, 3 mg/kg, Rat MK-801 Set Shift (0.3-3 mg/kg study), 3 mg/kg po, 150 min",0.24
same,Kp at 150 min,"[1]; rat, brain/plasma, 3 mg/kg, Rat MK-801 Set Shift (3-30 mg/kg study), 3 mg/kg po, 150 min",0.29
same,Kp at 150 min,"[1]; rat, brain/plasma, 10 mg/kg, Rat MK-801 Set Shift (3-30 mg/kg study), 10 mg/kg po, 150 min",0.29
same,Kp at 150 min,"[1]; rat, brain/plasma, 30 mg/kg, Rat MK-801 Set Shift (3-30 mg/kg study), 30 mg/kg po, 150 min",0.31
same,Kp,"[1]; rat, brain/plasma, other: subcutaneous or oral (pooled over all rat studies), rats",0.28
same,Kp at 30 min,"[1]; rat, brain/plasma, 0.03 mg/kg, Rat MMN, 0.03 mg/kg sc",0.57
same,Kp at 30 min,"[1]; rat, brain/plasma, 0.3 mg/kg, Rat MMN, 0.30 mg/kg sc",0.17
same,Kp at 30 min,"[1]; rat, brain/plasma, 0.3 mg/kg, Rat N40 Gating, 0.30 mg/kg sc",0.26
same,Kp at 30 min,"[1]; rat, brain/plasma, 0.56 mg/kg, Rat N40 Gating, 0.56 mg/kg sc",0.3
same,Kp at 30 min,"[1]; rat, brain/plasma, 1 mg/kg, Rat MMN, 1 mg/kg sc",0.19
same,Kp at 30 min,"[1]; rat, brain/plasma, 1 mg/kg, Rat N40 Gating, 1 mg/kg sc",0.33
same,Kp at 30 min,"[1]; rat, brain/plasma, 3 mg/kg, Rat MMN, 3 mg/kg sc",0.19
same,Kp at 30 min,"[1]; rat, brain/plasma, 3 mg/kg, Rat N40 Gating, 3 mg/kg sc",0.27
